Patent publication US9896423B2, “Deuterium substituted 1-[2-(2,4-dimethyl-phenylsulfanyl)-phenyl]piperazine compound or derivatives thereof, and pharmaceutical composition and use thereof” (Jiangsu Jibeier Pharmaceutical Co. Ltd., priority 2014, dated 2018)
Counter-ions that a name gives are not always drawn.

What was measured:
[1] = system: Male ICR mice; test: Mice swimming test; format: in vivo
Excerpt: (§1) The following method is used for testing the antidepression effect of the compound of the present application. ICR mice or SD rats, gavaged for two successive weeks, were subjected to mice swimming test, mice tail suspension test and rats swimming test. See below for details of the tests and results.
Male ICR mice weighing 18 g to 20 g were used. They were fed on sterilized standard feed.
The compound administered in the test was 1-{2-[2,4-bis(trideuteriomethyl)phenylsulfanyl]phenyl}piperazine hydrobromic acid salt (XX for short). Vortioxetine (YY for short) was used as a control sample. Venlafaxine HCl (from Wyeth, USA) was used as a positive control.
Vortioxetine (15 mg) was combined with 10% hydroxypropyl-β-cyclodextrin to form a solution of 100 mL and was administered at daily dose of 3 mg/kg. 1-{2-[2,4-bis(trideuteriomethyl)phenylsulfanyl]phenyl}piperazine hydrobromic acid salt (15 mg and 7.5 mg) was combined with 10% hydroxypropyl-β-cyclodextrin to form two solutions of 100 mL and was administered at daily doses of 3 mg/kg and 1.5 mg/kg, respectively. Venlafaxine HCl (75 mg) was combined with 0.5% CMC-Na to form a solution of 100 mL and was administered at daily dose of […].
A recording and analysis system for small-animal behavior (Noldus) was used.
All the eighty mice were subjected to prescreening one day before the administration. The mice, fasted for 4 hours were put in a round glass tank (ø 14 cm×h 20 cm, with water of 10 cm depth and at a temperature of 25° C.) to swim. […] The whole swimming course was recorded by the video and the data were collected and analyzed automatically by Noldus software.
The forty qualified mice were divided into 4 groups, each of which had 10 mice, according to the Excel random grouping.
The medicaments were administered to each group by gavage with the amount of 0.2 ml per 10 g of body weight, once a day for 14 successive days. One hour later after the last oral administration, the mice were allowed to swim for 6 min. The video recorded the whole swimming course, and the Noldus software automatically collected and analyzed the data.
The data was given as “average±standard deviation” (x±s). One-way analysis of variance (one-way ANOVA) was used for data difference statistics. Differences among the groups were determined by P<0.05.

[2] = system: Male ICR mice; test: Mice tail suspension test; format: in vivo
Excerpt: as §1
The animals, medicaments, calculation of dosages to the mice, preparation of drug solution and apparatus are the same as those in the mice swimming test.
The medicaments were correspondingly administered by gavage, once a day, to the animals in the groups for 14 successive days, with the amount of 0.2 ml per 10 g of body weight. The mice were subjected to tail suspension one hour later after the last oral administration. The suspension continued for 6 min.
The data was given as “average±standard deviation” (x±s). One-way analysis of variance (ANOVA) was used for data difference statistics. Differences among the groups were determined by P<0.05.

[3] = 30 mg/kg gavage, two successive weeks

COc1ccc(C(CN(C)C)C2(O)CCCCC2)cc1 (stereo not shown) [Venlafaxine, Venlafaxine HCl, reference compound]
effect on length of time that the mice stopped swimming vs blank control [1, 3]: markedly shortened | Duration without Movement within the Last 4 min of the Whole 6 min ([1]; mice, gavage once a day for 14 days, 30 mg/kg, n = 10, x ± s): 173.6 ± 31.4 s | effect on length of time that the tail-suspended mice stopped moving vs blank control [2, 3]: markedly shortened | Duration without Move within 6 min ([2]; mice tail suspension, gavage 14 days, 30 mg/kg, n = 10, x ± s): 180.6 ± 661.8 s
